This is an account of results in ChEMBL document CHEMBL5325403, “Benzenesulfonyl thiazoloimines as unique multitargeting antibacterial agents towards Enterococcus faecalis” (Eur J Med Chem, 2023).

For orientation: MIC means the smallest concentration in the dilution series that meets the test's criterion for growth inhibition.

In brackets after ≈: the same amount, converted by molar mass.

Type in all cases: functional
In assay [1] the test system is Escherichia coli. Kind of assay: Antibacterial activity against Escherichia coli assessed as inhibition of bacterial growth by continuous dilution method.
The subject of assay [2] is Pseudomonas aeruginosa. Kind of assay: Antibacterial activity against Pseudomonas aeruginosa ATCC 27853 assessed as inhibition of bacterial growth by continuous dilution method.
For assay [3], the system named is Staphylococcus aureus. Kind of assay: Antibacterial activity against Staphylococcus aureus ATCC 29213 assessed as inhibition of bacterial growth by continuous dilution method.
Assay [4] concerns Staphylococcus aureus. Kind of assay: Antibacterial activity against methicillin-resistant Staphylococcus aureus N315 assessed as inhibition of bacterial growth by continuous dilution method.
Assay [5] deals with Staphylococcus aureus. Kind of assay: Antibacterial activity against Staphylococcus aureus assessed as inhibition of bacterial growth by continuous dilution method.
For another assay, the system named is Enterococcus faecalis. Kind of assay: Antibacterial activity against Enterococcus faecalis assessed as inhibition of bacterial growth by continuous dilution method.
The test system of another assay is Klebsiella pneumoniae. Kind of assay: Antibacterial activity against Klebsiella pneumoniae assessed as inhibition of bacterial growth by continuous dilution method.
In assay [6] the test system is Pseudomonas aeruginosa. Kind of assay: Antibacterial activity against Pseudomonas aeruginosa assessed as inhibition of bacterial growth by continuous dilution method.
Assay [7] relates to Staphylococcus aureus. Kind of assay: Antibacterial activity against Staphylococcus aureus ATCC 25923 assessed as inhibition of bacterial growth by continuous dilution method.
In assay [8] the test system is Escherichia coli. Kind of assay: Antibacterial activity against Escherichia coli ATCC 25922 assessed as inhibition of bacterial growth by continuous dilution method.
Another assay relates to Acinetobacter baumannii. Kind of assay: Antibacterial activity against Acinetobacter baumannii assessed as inhibition of bacterial growth by continuous dilution method.

Regarding `CC(=O)Nc1ccc(S(=O)(=O)/C(=C\c2nccs2)C(=O)c2nccs2)cc1`, the minimum inhibitory concentration (MIC) in the assay with Escherichia coli [1] amounted to 16 µg/mL (≈ 38.1 µM); in the assay with Pseudomonas aeruginosa [2], 128 µg/mL (≈ 305 µM); with Staphylococcus aureus [3], 64 µg/mL (≈ 153 µM); with Staphylococcus aureus [4], 8 µg/mL (≈ 19.1 µM); in the assay with Staphylococcus aureus [5], 32 µg/mL (≈ 76.3 µM); with Enterococcus faecalis, 16 µg/mL (≈ 38.1 µM). In addition, the minimal inhibitory concentration (MIC) in the assay on Klebsiella pneumoniae is 16 µg/mL (≈ 38.1 µM); in the assay on Pseudomonas aeruginosa [6] it was 128 µg/mL (≈ 305 µM); in the assay on Staphylococcus aureus [7], 4 µg/mL (≈ 9.53 µM); in the assay with Escherichia coli [8], 128 µg/mL (≈ 305 µM); with Acinetobacter baumannii, 128 µg/mL (≈ 305 µM).
As for `Nc1ccc(S(=O)(=O)C/C(=N/OCc2ccc(Cl)cc2)c2nccs2)cc1`, the minimum inhibitory concentration (MIC) in the assay with Escherichia coli [1] is 16 µg/mL (≈ 37.9 µM); in the assay on Pseudomonas aeruginosa [2] it was 8 µg/mL (≈ 19 µM); in the assay on Staphylococcus aureus [3], 128 µg/mL (≈ 303 µM); in the assay on Staphylococcus aureus [4], 64 µg/mL (≈ 152 µM); in the assay with Staphylococcus aureus [5] it was 64 µg/mL (≈ 152 µM); in the assay on Enterococcus faecalis, 8 µg/mL (≈ 19 µM). Further, the MIC with Klebsiella pneumoniae worked out at 16 µg/mL (≈ 37.9 µM); with Pseudomonas aeruginosa [6] it was 64 µg/mL (≈ 152 µM); with Staphylococcus aureus [7], 64 µg/mL (≈ 152 µM); in the assay on Escherichia coli [8], 8 µg/mL (≈ 19 µM); in the assay with Acinetobacter baumannii it was 64 µg/mL (≈ 152 µM).
With `CC(=O)Nc1ccc(S(=O)(=O)/C(=C\c2ccccc2Cl)C(=O)c2nccs2)cc1`, the minimal inhibitory concentration (MIC) with Escherichia coli [1] worked out at 16 µg/mL (≈ 35.8 µM); in the assay with Pseudomonas aeruginosa [2] it was 32 µg/mL (≈ 71.6 µM); in the assay on Staphylococcus aureus [3], 128 µg/mL (≈ 286 µM); in the assay on Staphylococcus aureus [4], 256 µg/mL (≈ 573 µM); with Staphylococcus aureus [5], 32 µg/mL (≈ 71.6 µM); in the assay on Enterococcus faecalis it was 16 µg/mL (≈ 35.8 µM). In addition, the minimal inhibitory concentration (MIC) was determined as 16 µg/mL (≈ 35.8 µM) in the assay with Klebsiella pneumoniae; 256 µg/mL (≈ 573 µM) in the assay on Pseudomonas aeruginosa [6]; 64 µg/mL (≈ 143 µM) with Staphylococcus aureus [7]; 64 µg/mL (≈ 143 µM) in the assay with Escherichia coli [8]; 128 µg/mL (≈ 286 µM) in the assay with Acinetobacter baumannii.
Regarding `CC(=O)Nc1ccc(S(=O)(=O)/C(=C\c2ccc(C(F)(F)F)cc2)C(=O)c2nccs2)cc1`, the MIC with Escherichia coli [1] amounted to 256 µg/mL (≈ 533 µM); with Pseudomonas aeruginosa [2], 64 µg/mL (≈ 133 µM); in the assay with Staphylococcus aureus [3], 128 µg/mL (≈ 266 µM); with Staphylococcus aureus [4], 256 µg/mL (≈ 533 µM); in the assay on Staphylococcus aureus [5], 256 µg/mL (≈ 533 µM); in the assay on Enterococcus faecalis it was 128 µg/mL (≈ 266 µM). Moreover, the MIC in the assay with Klebsiella pneumoniae worked out at 256 µg/mL (≈ 533 µM); in the assay on Pseudomonas aeruginosa [6], 64 µg/mL (≈ 133 µM); with Staphylococcus aureus [7], 128 µg/mL (≈ 266 µM); in the assay on Escherichia coli [8], 256 µg/mL (≈ 533 µM); in the assay with Acinetobacter baumannii, 128 µg/mL (≈ 266 µM).
`CC(=O)Nc1ccc(S(=O)(=O)C/C(=N/OCc2ccc(Cl)cc2)c2nccs2)cc1`: the MIC in the assay on Escherichia coli [1] is 64 µg/mL (≈ 138 µM); in the assay with Pseudomonas aeruginosa [2], 32 µg/mL (≈ 69 µM); in the assay on Staphylococcus aureus [3], 64 µg/mL (≈ 138 µM); with Staphylococcus aureus [4], 32 µg/mL (≈ 69 µM); in the assay on Staphylococcus aureus [5] it was 128 µg/mL (≈ 276 µM); in the assay with Enterococcus faecalis, 64 µg/mL (≈ 138 µM). For the same compound, the MIC with Klebsiella pneumoniae came to 32 µg/mL (≈ 69 µM); in the assay with Pseudomonas aeruginosa [6], 64 µg/mL (≈ 138 µM); with Staphylococcus aureus [7] it was 64 µg/mL (≈ 138 µM); in the assay with Escherichia coli [8] it was 8 µg/mL (≈ 17.2 µM); with Acinetobacter baumannii, 128 µg/mL (≈ 276 µM).
In the case of `Nc1ccc(S(=O)(=O)Nc2nccs2)cc1` [SULFATHIAZOLE], the MIC in the assay on Escherichia coli [1] came out at 256 µg/mL (≈ 1000 µM); with Pseudomonas aeruginosa [2] it was 512 µg/mL (≈ 2010 µM); in the assay on Staphylococcus aureus [3] it was 128 µg/mL (≈ 501 µM); in the assay with Staphylococcus aureus [4], 64 µg/mL (≈ 251 µM); with Staphylococcus aureus [5], 128 µg/mL (≈ 501 µM); with Enterococcus faecalis, 128 µg/mL (≈ 501 µM). For the same compound, the minimum inhibitory concentration (MIC) with Klebsiella pneumoniae was 128 µg/mL (≈ 501 µM); in the assay on Pseudomonas aeruginosa [6] it was 128 µg/mL (≈ 501 µM); in the assay on Staphylococcus aureus [7] it was 64 µg/mL (≈ 251 µM); with Escherichia coli [8], 128 µg/mL (≈ 501 µM); with Acinetobacter baumannii it was 128 µg/mL (≈ 501 µM).
`CC(=O)Nc1ccc(S(=O)(=O)C/C(=N/NC(=O)c2ccncc2)c2nccs2)cc1`: the MIC was 128 µg/mL (≈ 289 µM) in the assay with Escherichia coli [1]; 4 µg/mL (≈ 9.02 µM) in the assay on Pseudomonas aeruginosa [2]; 4 µg/mL (≈ 9.02 µM) with Staphylococcus aureus [3]; 32 µg/mL (≈ 72.2 µM) in the assay with Staphylococcus aureus [4]; 16 µg/mL (≈ 36.1 µM) in the assay on Staphylococcus aureus [5]; 4 µg/mL (≈ 9.02 µM) in the assay on Enterococcus faecalis. The minimal inhibitory concentration (MIC) in the assay with Klebsiella pneumoniae stood at 32 µg/mL (≈ 72.2 µM); in the assay with Pseudomonas aeruginosa [6] it was 8 µg/mL (≈ 18 µM); in the assay with Staphylococcus aureus [7], 8 µg/mL (≈ 18 µM); in the assay with Escherichia coli [8], 128 µg/mL (≈ 289 µM); with Acinetobacter baumannii it was 32 µg/mL (≈ 72.2 µM).
